Source: patent US4428942A, “Analogs of somatostatin” (The Salk Institute for Biological Studies, priority 1982, dated 1984)

How the values were obtained:
[1] = system: release of growth hormone induced by isobutyl methyl xanthine in pituitary cells; format: cell-based, rat; settings: cultured rat pituitary cells, isobutyl methyl xanthine-induced release; SS-14 = 100
Protocol: To determine the effectiveness of the peptides to inhibit the release of growth hormone, in vitro radioimmunoassays are carried out using the SS analogs in side-by-side comparison with equimolar concentrations of somatostatin-14 having a known effectiveness to inhibit the release of growth hormone induced by the application of isobutyl methyl xanthine to pituitary cells. Cultures are used which include cells of rat pituitary glands removed some four to five days previously in a system that minimizes enzymatic degradation, generally following the procedure set forth in Vale et al., Methods in Enzymology, Hormones and Cyclic Nucleotides (1975) Vol. 37, p. 82. Both cultures of a defined standard medium and cultures which are considered optimal for the secretion of growth hormone, as a result of having additions of either 2% or 10% of serum from a foetal calf, are used for the comparative testing.

secretion of insulin = settings: in vivo, arginine-stimulated, rats; SS-14 = 100
Protocol: (§1) In vivo experiments are carried out with the analogs, using the procedure described in Brown et al., Metabolism (1976) Vol. 25, pp. 1501-1503, to determine the potency, relative to somatostatin-14, to inhibit the secretion of glucagon and insulin stimulated by the administration of arginine to groups of six rats.

secretion of glucagon = system: secretion of glucagon; parameters: species or system rats; settings: in vivo, arginine-stimulated, rats; SS-14 = 100
Protocol: as §1

isolated rabbit ileum = settings: isolated rabbit ileum, Ussing chamber, chloride fluxes; SS-14 = 100
Protocol: The analogs are tested in vitro in isolated rabbit ileum using the modified Ussing chamber technique, as described in Amer. J. of Physiol., 225:776-780 (1973). Unidirectional chloride fluxes are determined and used to characterize bi-directional fluxes following the addition of an SS-analog. Changes are measured with varying concentrations, and the potency to inhibit ion transport is quantitated and expressed as a percentage of the potency of SS-14.

Row | SMILES | GH (potency for the inhibition of GH release relative to SS-14) [1] [%] | Insulin (potency to inhibit insulin secretion relative to SS-14) (secretion of insulin) [%] | Glucagon (potency to inhibit glucagon secretion relative to SS-14) (secretion of glucagon) [%] | Ion Transport (potency to inhibit ion transport expressed as a percentage of the potency of SS-14) (isolated rabbit ileum) [%]
1 | C[C@H](N)C(=O)NCC(=O)N[C@H]1CSSC[C@@H](C(=O)O)NC(=O)[C@H](CO)NC(=O)[C@H]([C@@H](C)O)NC(=O)[C@H](Cc2ccccc2)NC(=O)[C@H]([C@@H](C)O)NC(=O)[C@H](CCCCN)NC(=O)[C@H](Cc2c[nH]c3ccccc23)NC(=O)[C@H](Cc2ccccc2)NC(=O)[C@@H](Cc2ccccc2)NC(=O)[C@H](CC(N)=O)NC(=O)[C@H](CCCCN)NC1=O [Peptide 16, [D-Phe^6]--SS] | 5 | < 1 | < 1 | 10
2 | C[C@H](N)C(=O)NCC(=O)N[C@H]1CSSC[C@H](C(=O)O)NC(=O)[C@H](CO)NC(=O)[C@H]([C@@H](C)O)NC(=O)[C@H](Cc2ccccc2)NC(=O)[C@H]([C@@H](C)O)NC(=O)[C@H](CCCCN)NC(=O)[C@H](Cc2c[nH]c3ccccc23)NC(=O)[C@H](Cc2ccccc2)NC(=O)[C@H](Cc2ccccc2)NC(=O)[C@H](CC(N)=O)NC(=O)[C@H](CCCCN)NC1=O [Peptide 17, [D-Cys^14]--SS] | 270 | 20 | 310 | 336
3 | C[C@H](N)C(=O)NCC(=O)N[C@H]1CSSC[C@@H](C(=O)O)NC(=O)[C@H](CO)NC(=O)[C@H]([C@@H](C)O)NC(=O)[C@H](Cc2ccccc2)NC(=O)[C@H]([C@@H](C)O)NC(=O)[C@H](CCCCN)NC(=O)[C@H](Cc2c[nH]c3ccccc23)NC(=O)[C@H](Cc2ccccc2)NC(=O)[C@H](Cc2ccccc2)NC(=O)[C@H](CC(N)=O)NC(=O)[C@H](CCCCN)NC1=O [SS-14, somatostatin] | 100 | 100 | 100 | 100
